The compounds below were run against SYK (Homo sapiens, UniProt P43405) (assay: SYK inhibition assay: SYK-mediated phosphorylation of FAM-labeled substrate (Caliper microfluidic)). Conditions: read-out: SYK Inhibition (pIC50) (converted).
Format: biochemical

Which IC50 does the source give for Cc1cccc(Nc2nc(N[C@H](CC(C)C)C(N)=O)cc3c2C(=O)NC3)c1 [Example 57, (R)-4-Methyl-2-(3-oxo-4-(m-tolylamino)-2,3-dihydro-1H-pyrrolo[3,4-c]pyridin-6-ylamino)pentanamide] here?
Its IC50 is 15.8 nM.

How did the IC50 turn out when Cc1cccc(Nc2nc(NCC3CCCN3)nc3c2C(=O)NC3)c1 (stereo not drawn) [Example 44, 2-(Pyrrolidin-2-ylmethylamino)-4-(m-tolylamino)-6,7-dihydro-5H-pyrrolo[3,4-d]pyrimidin-5-one] was run?
Its IC50 is 631 nM.

With Cc1ncc(-c2nc(N[C@@H]3CCCC[C@@H]3N)c(F)c3c2C(=O)NC3)s1 [Example 122, 6-((1R,2S)-2-Aminocyclohexylamino)-7-fluoro-4-(2-methylthiazol-5-yl)-1H-pyrrolo[3,4-c]pyridin-3(2H)-one] as the compound, how does the IC50 read?
Its IC50 is 631 nM.

With N[C@H]1CCCC[C@H]1Nc1cc2c(c(-c3cnn(C4CC4)c3)n1)C(=O)NC2 [Example 61] as the compound, how does the IC50 read?
Its IC50 is 63.1 nM.

Which IC50 does the source give for CCCn1cc(-c2nc(N[C@@H]3CCCC[C@@H]3N)nc3c2C(=O)NC3)cn1 [Example 21, 2-((1R,2S)-2-Aminocyclohexylamino)-4-(1-propyl-1H-pyrazol-4-yl)-6,7-dihydro-5H-pyrrolo[3,4-c]pyrimidin-5-one] here?
Its IC50 is 501 nM.

How did the IC50 turn out when N[C@H]1COCC[C@H]1Nc1nc(-c2cnn(C3CC3)c2)c2c(c1F)CNC2=O [Example 136, 6-((3R,4R)-3-Aminotetrahydro-2H-pyran-4-ylamino)-4-(1-cyclopropyl-1H-pyrazol-4-yl)-7-fluoro-1H-pyrrolo[3,4-c]pyridin-3(2H)-one] was run?
Its IC50 is 31.6 nM.

Cc1cccc(Nc2nc(N[C@@H]3CCCC[C@@H]3N)nc3c2C(=O)NC32CC2)c1 [Example 39, 2′-((1R,2S)-2-Aminocyclohexylamino)-4′-(m-tolylamino)spiro[cyclopropane-1,7′-pyrrolo[3,4-d]pyrimidin]-5′(6′H)-one] was tested. Which IC50 did it give?
The IC50 was 3160 nM.

How did the IC50 turn out when Cc1cccc(Nc2nc(CCCN)nc3c2C(=O)NC3)c1 [Example 49, 2-(3-Aminopropyl)-4-(m-tolylamino)-6,7-dihydro-5H-pyrrolo[3,4-d]pyrimidin-5-one] was run?
The IC50 was greater than 20000 nM.

How did the IC50 turn out when Cc1cn(-c2nc(N[C@@H]3CCCC[C@@H]3N)c(F)c3c2C(=O)NC3)cn1 [Example 131, 6-((1R,2S)-2-Aminocyclohexylamino)-7-fluoro-4-(4-methyl-1H-imidazol-1-yl)-1H-pyrrolo[3,4-c]pyridin-3(2H)-one] was run?
The IC50 was greater than 20000 nM.

With Cc1ccc(-c2nc(N[C@H](CC(C)C)C(N)=O)c(F)c3c2C(=O)NC3)s1 [Example 111, (R)-2-(7-Fluoro-4-(5-methylthiophen-2-yl)-3-oxo-2,3-dihydro-1H-pyrrolo[3,4-c]pyridin-6-ylamino)-4-methylpentanamide] as the compound, how does the IC50 read?
Its IC50 is 7.94 nM.

With Cn1cc(-c2nc(N[C@@H]3CCCC[C@@H]3N)nc3c2C(=O)NC3)cn1 [Example 14, 2-((1R,2S)-2-Aminocyclohexylamino)-4-(1-methyl-1H-pyrazol-4-yl)-6,7-dihydro-5H-pyrrolo[3,4-d]pyrimidin-5-one] as the compound, how does the IC50 read?
The IC50 was 126 nM.

With Cc1cccc(Nc2nc(N[C@H]3COCC[C@H]3N)cc3c2C(=O)NC3)c1 [Example 86, 6-((3R,4R)-4-Aminotetrahydro-2H-pyran-3-ylamino)-4-(m-tolylamino)-1H-pyrrolo[3,4-c]pyridin-3(2H)-one] as the compound, how does the IC50 read?
Its IC50 is 2510 nM.

COC[C@H](N)CNc1nc(Nc2cccc(C)c2)c2c(c1C#N)CNC2=O [Example 78, (R)-6-(2-Amino-3-methoxypropylamino)-3-oxo-4-(m-tolylamino)-2,3-dihydro-1H-pyrrolo[3,4-c]pyridine-7-carbonitrile] was tested. Which IC50 did it give?
The IC50 was 3.98 nM.

Which IC50 does the source give for Cc1cccc(Nc2nc(N[C@@H]3CCOC[C@@H]3N)cc3c2C(=O)NC3)c1 [Example 85, 6-((3R,4R)-3-Aminotetrahydro-2H-pyran-4-ylamino)-4-(m-tolylamino)-1H-pyrrolo[3,4-c]pyridin-3(2H)-one] here?
The IC50 was 3.98 nM.

With Cc1cc(-c2nc(N[C@@H]3CCOC[C@@H]3N)c(F)c3c2C(=O)NC3)sn1 [Example 132, 6-((3R,4R)-3-Aminotetrahydro-2H-pyran-4-ylamino)-7-fluoro-4-(3-methylisothiazol-5-yl)-1H-pyrrolo[3,4-c]pyridin-3(2H)-one] as the compound, how does the IC50 read?
Its IC50 is 3.98 nM.
